Tests used:
[1] = tested on: HT-1080-FAP tumor-bearing mice; assay: biodistribution in HT-1080-FAP tumor-bearing mice; type: in vivo, BALB/C-nu/nu mice; conditions: i.v.
Description: All animal experiments were conducted in compliance with a protocol approved by the First Affiliated Hospital of Sun Yat-sen University Institutional Animal Care and Use Committee. BALB/C-nu/nu mice (4–5-week old with body weight of 16–22 g) were purchased from GemPharmatech Co., Ltd. Mice were housed under standard conditions with temperature and light control (12-h-light/12-h-dark cycle) and had free access to water and food. For the tumor model, HT-1080-FAP or HT-1080 cells (5 × 10^6) were subcutaneously injected into the right or left flank of nude mice, respectively. As the tumor diameter reached 3–4 mm, mice were treated with radioligands. Micro-PET and SPECT imaging studies, as well as biodistribution, were conducted when the tumor diameter reached 5–10 mm.
[^177Lu]21 (~ 0.925 MBq) was injected via the tail vein of HT-1080-FAP tumor-bearing mice. The animals were sacrificed at 4, 24, 48 and 96 h pi. Organs of interest were dissected, weighed and counted with a γ-counter. The data were normalized to percentage injected dose (%ID/g) with standard dilution of the initial dose. The biodistribution of [^177Lu]Lu-FAPI-04 was conducted at 24 h pi for comparison.

HT-1080-FAP cells = assay: efflux experiments in HT-1080-FAP cells; type: cell-based, human; conditions: preincubated 1 h, up to 4 h
Description: The human fibrosarcoma cell lines HT-1080 and HT-1080-FAP transferred with human FAP gene were both cultured in Dulbecco modified Eagle medium supplemented with 10% fetal bovine serum (Gibco, USA) at 37℃/5% carbon dioxide. For cell uptake experiments, HT-1080-FAP cells (~ 1 × 10^5/well) or HT-1080 (~ 1 × 10^5/well) were seeded in 24-well plates for 24–48 h and incubated at 37℃ with radiolabeled compounds (74 kBq/well) in 0.5 mL of serum-free medium for indicated times. Non-specific binding was determined by co-incubating with 100 μM FAP inhibitor UAMC1110. For competitive FAP binding assays, HT-1080-FAP cells were incubated with [^177Lu]Lu-FAPI-04 (74 kBq/well) in the presence of different concentrations (10^−3–10^4 nM) of competing non-radioactive ligands. For internalization experiments, the radiotracer-incubated cells were washed twice with PBS (pH 7.4), followed by glycine–HCl (0,05 M, pH = 2.8) solution to distinguish between cell surface–bound (acid-releasable) and internalized (acid-resistant) radioligand. For efflux experiments, cells were preincubated with [^177Lu]21 or [^177Lu]Lu-FAPI-04 for 1 h and subsequently incubated at 37 °C in a medium free of radiotracer and serum for different time periods. […] Cell lysates were collected and the radioactivity was determined using a γ-counter.

SMILES: CC(C)(C)[Si](F)(c1ccc(C(=O)NCC(NC(=O)CCC(C(=O)O)N2CCN(CC(=O)[O-])CCN(CC(=O)[O-])CCN(CC(=O)[O-])CC2)C(=O)NCC2CCC(C(=O)NCCCOc3ccc4nccc(C(=O)NCC(=O)N5CC(F)(F)CC5C#N)c4c3)CC2)cc1)C(C)(C)C.[177Lu+3] (stereo not drawn) [[^177Lu]21]
- Tumor/ Kidney ratio ([1]; 4 h pi): 2.15 ± 0.55
- Tumor/Blood ratio ([1]; 4 h pi): 2.63 ± 0.23
- Tumor/Liver ratio ([1]; 4 h pi): 3.98 ± 1.00
- Tumor/Muscle ratio ([1]; 4 h pi): 6.36 ± 0.27
- uptake in HT-1080-FAP tumor ([1]; 4 h pi): 9.82 ± 1.35 %ID/g
- uptake in blood ([1]; 4 h pi): 3.73 ± 0.36 %ID/g
- uptake in bone ([1]; 4 h pi): 6.76 ± 0.51 %ID/g
- uptake in brain ([1]; 4 h pi): 0.14 ± 0.01 %ID/g
- uptake in heart ([1]; 4 h pi): 1.97 ± 0.09 %ID/g
- uptake in intestine ([1]; 4 h pi): 2.12 ± 0.5 %ID/g
- uptake in kidney ([1]; 4 h pi): 4.70 ± 0.89 %ID/g
- uptake in liver ([1]; 4 h pi): 2.56 ± 0.57 %ID/g
- uptake in lung ([1]; 4 h pi): 3.33 ± 0.97 %ID/g
- uptake in muscle ([1]; 4 h pi): 1.54 ± 0.14 %ID/g
- uptake in pancreas ([1]; 4 h pi): 4.03 ± 0.93 %ID/g
- uptake in skin ([1]; 4 h pi): 3.60 ± 0.56 %ID/g
- uptake in spleen ([1]; 4 h pi): 1.53 ± 0.25 %ID/g
- uptake in stomach ([1]; 4 h pi): 1.80 ± 0.52 %ID/g
- Tumor/ Kidney ratio ([1]; 24 h pi): 1.73 ± 0.32
- Tumor/Blood ratio ([1]; 24 h pi): 13.77 ± 4.99
- Tumor/Liver ratio ([1]; 24 h pi): 1.84 ± 0.41
- Tumor/Muscle ratio ([1]; 24 h pi): 7.03 ± 1.39
- uptake in HT-1080-FAP tumor ([1]; 24 h pi): 2.98 ± 0.98 %ID/g
- uptake in blood ([1]; 24 h pi): 0.22 ± 0.03 %ID/g
- uptake in bone ([1]; 24 h pi): 2.46 ± 0.74 %ID/g
- uptake in brain ([1]; 24 h pi): 0.02 ± 0.00 %ID/g
- uptake in heart ([1]; 24 h pi): 0.61 ±0.43 %ID/g
- uptake in intestine ([1]; 24 h pi): 0.37 ± 0.03 %ID/g
- uptake in kidney ([1]; 24 h pi): 1.72 ± 0.45 %ID/g
- uptake in liver ([1]; 24 h pi): 1.63 ± 0.44 %ID/g
- uptake in lung ([1]; 24 h pi): 0.46 ± 0.11 %ID/g
- uptake in muscle ([1]; 24 h pi): 0.42 ± 0.09 %ID/g
- uptake in pancreas ([1]; 24 h pi): 0.69 ± 0.14 %ID/g
- uptake in skin ([1]; 24 h pi): 1.07 ± 0.32 %ID/g
- uptake in spleen ([1]; 24 h pi): 0.69 ± 0.13 %ID/g
- uptake in stomach ([1]; 24 h pi): 0.39 ± 0.11 %ID/g
- Tumor/ Kidney ratio ([1]; 48 h pi): 1.60 ± 0.19
- Tumor/Blood ratio ([1]; 48 h pi): 56.58 ± 6.63
- Tumor/Liver ratio ([1]; 48 h pi): 3.66 ± 0.52
- Tumor/Muscle ratio ([1]; 48 h pi): 11.31 ± 1.41
- uptake in HT-1080-FAP tumor ([1]; 48 h pi): 2.43 ± 0.04 %ID/g
- uptake in blood ([1]; 48 h pi): 0.04 ± 0.01 %ID/g
- uptake in bone ([1]; 48 h pi): 3.09 ± 0.86 %ID/g
- uptake in heart ([1]; 48 h pi): 0.27 ± 0.05 %ID/g
- uptake in intestine ([1]; 48 h pi): 0.12 ± 0.02 %ID/g
- uptake in kidney ([1]; 48 h pi): 1.53 ± 0.21 %ID/g
- uptake in liver ([1]; 48 h pi): 0.67 ± 0.11 %ID/g
- uptake in lung ([1]; 48 h pi): 0.53 ± 0.4 %ID/g
- uptake in muscle ([1]; 48 h pi): 0.22 ± 0.03 %ID/g
- uptake in pancreas ([1]; 48 h pi): 0.35 ± 0.04 %ID/g
- uptake in skin ([1]; 48 h pi): 0.58 ± 0.09 %ID/g
- uptake in spleen ([1]; 48 h pi): 0.81 ± 0.18 %ID/g
- uptake in stomach ([1]; 48 h pi): 0.32 ± 0.04 %ID/g
- Tumor/ Kidney ratio ([1]; 96 h pi): 1.11 ± 0.04
- Tumor/Blood ratio ([1]; 96 h pi): 102.33 ± 11.24
- Tumor/Liver ratio ([1]; 96 h pi): 0.93 ± 0.01
- Tumor/Muscle ratio ([1]; 96 h pi): 9.0 ± 1.35
- uptake in HT-1080-FAP tumor ([1]; 96 h pi): 1.02 ± 0.11 %ID/g
- uptake in blood ([1]; 96 h pi): 0.01 ± 0.00 %ID/g
- uptake in bone ([1]; 96 h pi): 3.02 ± 0.69 %ID/g
- uptake in brain ([1]; 96 h pi): 0.01 ± 0.00 %ID/g
- uptake in heart ([1]; 96 h pi): 0.16 ± 0.03 %ID/g
- uptake in intestine ([1]; 96 h pi): 0.11 ± 0.01 %ID/g
- uptake in kidney ([1]; 96 h pi): 0.92 ± 0.13 %ID/g
- uptake in liver ([1]; 96 h pi): 1.10 ± 0.12 %ID/g
- uptake in lung ([1]; 96 h pi): 0.57 ± 0.34 %ID/g
- uptake in muscle ([1]; 96 h pi): 0.12 ± 0.03 %ID/g
- uptake in pancreas ([1]; 96 h pi): 0.15 ± 0.03 %ID/g
- uptake in skin ([1]; 96 h pi): 0.35 ± 0.05 %ID/g
- uptake in spleen ([1]; 96 h pi): 0.43 ± 0.07 %ID/g
- uptake in stomach ([1]; 96 h pi): 0.20 ± 0.01 %ID/g
- efflux (HT-1080-FAP cells): slower excretion up to 4 h than [^177Lu]Lu-FAPI-04

— PMC10250256, “A radiohybrid theranostics ligand labeled with fluorine-18 and lutetium-177 for fibroblast activation protein-targeted imaging and radionuclide therapy” (European Journal of Nuclear Medicine and Molecular Imaging, 2023)
